Paper PMC10758781 (Heliyon, 2023)
Read-outs that look alike come from different tables or passages of the source. *1 amine or outer side, *2 acyl side, *3 side chain or, on linkers, in order; H or OH if unused. Where a SMILES comes first, the peptide text is derived from it. Bridges are numbered along the chain shown (N, C = ends). Roman numbers before positions name the chains, in order. [ ]: non-standard residue; d: D form. Actinocin(9to1) = Cc1c2oc3c(C)ccc(C(=O)[*:1])c3nc-2c(C(=O)[*:2])c(N)c1=O; NMeV = CN[C@H](C(=O)O)C(C)C; Sar = CNCC(=O)O

Experiments:
ERβ [1] = biological target: T1, ERβ (Homo sapiens, UniProt Q92731); format: cell-based; settings: for activity in GFP-ERβ:PRL-HeLa, EPA45 batch received: first batch of EPA45 chemicals; for effect on array size and dsRED2 features (in words): EPA45 library, 6-point dose-response
T1 sequence (Q92731 whole entry): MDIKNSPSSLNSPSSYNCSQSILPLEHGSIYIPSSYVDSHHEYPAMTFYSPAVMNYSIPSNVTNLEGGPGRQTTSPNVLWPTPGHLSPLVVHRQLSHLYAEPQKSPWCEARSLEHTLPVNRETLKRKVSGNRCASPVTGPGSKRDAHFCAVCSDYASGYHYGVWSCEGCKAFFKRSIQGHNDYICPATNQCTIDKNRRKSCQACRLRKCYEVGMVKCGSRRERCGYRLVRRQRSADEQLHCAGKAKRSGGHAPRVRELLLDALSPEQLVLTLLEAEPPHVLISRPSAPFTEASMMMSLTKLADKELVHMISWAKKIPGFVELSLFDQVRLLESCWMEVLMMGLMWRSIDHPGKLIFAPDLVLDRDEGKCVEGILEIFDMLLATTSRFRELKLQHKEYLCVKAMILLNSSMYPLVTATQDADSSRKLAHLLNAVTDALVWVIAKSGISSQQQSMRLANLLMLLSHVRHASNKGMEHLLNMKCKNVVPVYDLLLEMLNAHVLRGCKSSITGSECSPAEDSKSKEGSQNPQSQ

zebrafish = settings: 3 dpf; for Toxicity, number of zebrafish: total fish in next column
zERβ2 = format: in vivo, zebrafish; settings: 3 dpf; for Liver GFP signal, number of zebrafish: total fish in next column
ERβ LBD = ERβ LBD only, without NLS; ref ToxCast [23]; cited from earlier work
ERβ [2] = biological target: T1, ERβ; format: cell-based; settings: for decrease of E2-induced stimulation of dsRED2 mRNA / decrease of basal dsRED2 mRNA transcription: 2-h, 4HT, ICI, PHTTP 1 μM, ActD 1 μg/ml, Flavo 100 nM; for decrease of E2-induced stimulation of dsRED2 mRNA: plus E2 10 nM; for decrease of basal dsRED2 mRNA transcription: without E2
[3] = system: zebrafish ERs (zERα, zERβ1, and zERβ2); format: in vivo; settings: 3 dpf
zERα = biological target: T2, zERα (Danio rerio, UniProt P57717); format: in vivo, zebrafish; settings: 3 dpf
T2 sequence (P57717 1-569): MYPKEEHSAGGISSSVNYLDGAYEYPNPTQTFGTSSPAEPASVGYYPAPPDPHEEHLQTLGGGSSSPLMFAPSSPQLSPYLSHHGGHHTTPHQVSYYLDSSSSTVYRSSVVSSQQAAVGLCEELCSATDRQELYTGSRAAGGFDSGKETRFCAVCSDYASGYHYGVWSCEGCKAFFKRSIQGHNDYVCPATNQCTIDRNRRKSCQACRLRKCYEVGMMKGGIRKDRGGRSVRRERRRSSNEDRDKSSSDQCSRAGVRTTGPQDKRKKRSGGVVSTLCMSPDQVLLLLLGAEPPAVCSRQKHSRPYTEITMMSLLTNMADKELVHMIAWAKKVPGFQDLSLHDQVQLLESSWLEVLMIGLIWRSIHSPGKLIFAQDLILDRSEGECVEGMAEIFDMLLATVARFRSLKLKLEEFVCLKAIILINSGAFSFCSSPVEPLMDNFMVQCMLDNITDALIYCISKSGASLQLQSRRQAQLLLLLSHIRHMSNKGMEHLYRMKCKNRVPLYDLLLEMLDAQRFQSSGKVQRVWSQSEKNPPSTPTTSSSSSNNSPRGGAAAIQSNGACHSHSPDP

[4] = system: zebrafish ERs (zERα, zERβ1, and zERβ2); settings: read-out: EC50 in ERE:GFP zebrafish; previously published results; ref [36],[37]; cited from earlier work
[5] = time course, E2 10 nM, 4HT 100 nM
[6] = both concentrations tested (2 and 20 μM)

## CC/C(=C(/CC)c1ccc(O)cc1)c1ccc(O)cc1 [diethylstilbestrol]
ERβ [1]; 2-h
  activity in GFP-ERβ:PRL-HeLa, EPA45 batch received: inactive

## O=c1c(O)c(-c2ccc(O)cc2)oc2cc(O)cc(O)c12 [Kaempferol]
zebrafish; 2 μM
  Dead/Abnormal zebrafish / total: 0/18
zebrafish; 20 μM
  Dead/Abnormal zebrafish / total: 0/18
zERβ2; 2 μM
  Liver (zERβ/hERα), zebrafish with GFP signal / total: 0/18
zERβ2; 20 μM
  Liver (zERβ/hERα), zebrafish with GFP signal / total: 0/18

## C[C@@H]1C[C@@H]([C@H](O)CC2CC(=O)NC(=O)C2)C(=O)[C@@H](C)C1 [Cycloheximide]
zebrafish; 2 μM
  Dead/Abnormal zebrafish / total: 0/18
zebrafish; 20 μM
  Dead/Abnormal zebrafish / total: 8/18
zebrafish; 2 and 20 μM
  toxicity in zebrafish (in words): mostly toxic
ERβ LBD
  activity in BiFC ERβ dimerization assay: no effect
zERβ2; 2 μM
  Liver (zERβ/hERα), zebrafish with GFP signal / total: 0/18
zERβ2; 20 μM
  Liver (zERβ/hERα), zebrafish with GFP signal / total: 1/18
ERβ [1]; 2-h
  effect on array size and dsRED2 features (in words): showed response in both features

## O=C1C2(Cl)C3(Cl)C4(Cl)C(Cl)(Cl)C5(Cl)C3(Cl)C1(Cl)C5(Cl)C24Cl (centres unmarked) [Kepone]
zebrafish; 2 μM
  Dead/Abnormal zebrafish / total: 0/18
zebrafish; 20 μM
  Dead/Abnormal zebrafish / total: 0/18
zERβ2; 2 μM
  Liver (zERβ/hERα), zebrafish with GFP signal / total: 0/18
zERβ2; 20 μM
  Liver (zERβ/hERα), zebrafish with GFP signal / total: 0/18

## CC/C(=C(\c1ccc(O)cc1)c1ccc(OCCN(C)C)cc1)c1ccccc1 [4HT, 4-Hydroxytamoxifen]
ERβ [1]; 384 well plates, four technical and four biological replicates
  Z-prime, Array Size: 0.61 ± 0.13
ERβ [1]; [5]
  change in array size vs DMSO (in words): decreasing it
  change in nuclear GFP-ERβ levels (in words): increase in GFP-ERβ signal within the nucleus
ERβ [2]
  decrease of E2-induced stimulation of dsRED2 mRNA: > 2 fold
  decrease of basal dsRED2 mRNA transcription: > 2 fold
ERβ [2]; 4HT 100 nM, vs DMSO
  intensity of dsRED2 RNA signal at the array (in words): diminishing significantly

## Cc1c2oc3c(C)ccc(C(=O)N[C@@H]4C(=O)N[C@H](C(C)C)C(=O)N5CCC[C@H]5C(=O)N(C)CC(=O)N(C)[C@@H](C(C)C)C(=O)O[C@@H]4C)c3nc-2c(C(=O)N[C@@H]2C(=O)N[C@H](C(C)C)C(=O)N3CCC[C@H]3C(=O)N(C)CC(=O)N(C)[C@@H](C(C)C)C(=O)O[C@@H]2C)c(N)c1=O [actinomycin D] (I: T[dV]P[Sar][NMeV] / II: T[dV]P[Sar][NMeV]; ester I:1-I:C, II:1-II:C; linker I:N-II:N via Actinocin(9to1))
ERβ [2]
  decrease of E2-induced stimulation of dsRED2 mRNA: > 2 fold
  decrease of basal dsRED2 mRNA transcription: > 2 fold

## C[C@]12CC[C@@H]3c4ccc(O)cc4C[C@@H](CCCCCCCCC[S+]([O-])CCCC(F)(F)C(F)(F)F)[C@H]3[C@@H]1CC[C@@H]2O (some centres unmarked) [ICI182,780, ICI 182,780]
ERβ [2]
  decrease of E2-induced stimulation of dsRED2 mRNA: > 2 fold
  decrease of basal dsRED2 mRNA transcription: > 2 fold

## CCC1(c2ccccc2)C(=O)NC(=O)NC1=O [Phenobarbital sodium]
zebrafish; 2 μM
  Dead/Abnormal zebrafish / total: 1/18
zebrafish; 20 μM
  Dead/Abnormal zebrafish / total: 1/18
ERβ LBD
  activity in BiFC ERβ dimerization assay: no effect
[3]; [6]
  tissue GFP signal (in words): showed GFP signal in both the liver and heart valve
zERβ2; 2 μM
  Liver (zERβ/hERα), zebrafish with GFP signal / total: 16/18
zERβ2; 20 μM
  Liver (zERβ/hERα), zebrafish with GFP signal / total: 16/18
ERβ [1]; 2-h
  effect on array size and dsRED2 features (in words): showed response in both features
zERα; 2 μM
  Heart (zERα/hERβ), zebrafish with GFP signal / total: 17/18
zERα; 20 μM
  Heart (zERα/hERβ), zebrafish with GFP signal / total: 14/18

## CCC(C)(c1ccc(O)cc1)c1ccc(O)cc1 [bisphenol B]
ERβ [1]; 2-h
  activity in GFP-ERβ:PRL-HeLa, EPA45 batch received: inactive
ERβ [2]; independent batch of the chemical
  activation of dsRED2, independent batch: little activation

## CC(C)(c1ccc(O)cc1)c1ccc(O)cc1 [bisphenol A]
ERβ [1]; 2-h
  activity in GFP-ERβ:PRL-HeLa, EPA45 batch received: inactive
ERβ [1]; independent batches of the chemicals
  activity in GFP-ERβ:PRL-HeLa, independent batches: confirmed activity

## Oc1ccc(-c2c(-c3ccccc3)nn3c(C(F)(F)F)cc(C(F)(F)F)nc23)cc1 [PHTTP, 4-[2-phenyl-5,7-bis(trifluoromethyl)pyrazolo[1,5-a]pyrimidin-3-yl]phenol]
ERβ [1]; GFP-ERβ:PRL-HeLa vs GFP-ERα:PRL-HeLa, 2-h, 10pM to 1 μM
  ER subtype preference across array metrics: preference for ERβ
ERβ [2]
  decrease of E2-induced stimulation of dsRED2 mRNA: > 2 fold
  decrease of basal dsRED2 mRNA transcription: > 2 fold

## COc1ccc(C(c2ccc(OC)cc2)C(Cl)(Cl)Cl)cc1 [methoxychlor]
ERβ LBD
  activity in BiFC ERβ dimerization assay: hits

## C[C@]12C[C@H](O)[C@H]3[C@@H](CCC4=CC(=O)CC[C@@]43C)[C@@H]1CC[C@@H]2C(=O)CO [Corticosterone]
zebrafish; 2 μM
  Dead/Abnormal zebrafish / total: 0/18
zebrafish; 20 μM
  Dead/Abnormal zebrafish / total: 2/18
ERβ LBD
  activity in BiFC ERβ dimerization assay: no effect
[3]; [6]
  tissue GFP signal (in words): showed GFP signal in both the liver and heart valve
zERβ2; 2 μM
  Liver (zERβ/hERα), zebrafish with GFP signal / total: 18/18
zERβ2; 20 μM
  Liver (zERβ/hERα), zebrafish with GFP signal / total: 16/18
ERβ [1]; 2-h
  effect on array size and dsRED2 features (in words): showed response in both features
zERα; 2 μM
  Heart (zERα/hERβ), zebrafish with GFP signal / total: 18/18
zERα; 20 μM
  Heart (zERα/hERβ), zebrafish with GFP signal / total: 16/18

## OC(c1ccc(Cl)cc1)(c1cncnc1)c1ccccc1Cl (centres unmarked) [fenarimol]
ERβ LBD
  activity in BiFC ERβ dimerization assay: hits

## O=c1c(-c2ccc(O)cc2)coc2cc(O)cc(O)c12 [genistein, Genistein]
zebrafish; 1 μM
  Toxicity, number of zebrafish: 0
zebrafish; 10 μM
  Toxicity, number of zebrafish: 0
zebrafish; 100 μM
  Toxicity, number of zebrafish: 12
[3]; 1 μM
  tissue GFP signal (in words): only heart valve signal
[3]; 10 μM
  tissue GFP signal (in words): heart valve and liver signal
zERβ2; 1 μM
  Liver GFP signal, number of zebrafish: 0
zERβ2; 10 μM
  Liver GFP signal, number of zebrafish: 12
zERβ2; 100 μM
  Liver GFP signal, number of zebrafish: 6

## OC(c1ccc(Cl)cc1)(c1ccc(Cl)cc1)C(Cl)(Cl)Cl [dicofol]
ERβ LBD
  activity in BiFC ERβ dimerization assay: hits

## CN1CC[C@H](c2c(O)cc(O)c3c(=O)cc(-c4ccccc4Cl)oc23)[C@H](O)C1 [flavopirodol]
ERβ [2]
  decrease of E2-induced stimulation of dsRED2 mRNA: > 2 fold
  decrease of basal dsRED2 mRNA transcription: > 2 fold

## CCCCOC(=O)c1ccccc1C(=O)OCc1ccccc1 [benzylbutylphthalate]
ERβ LBD
  activity in BiFC ERβ dimerization assay: hits

## C[C@]12CC[C@@H]3c4ccc(O)cc4CC[C@H]3[C@@H]1CC[C@@H]2O [E2, Estradiol (17-β)]
zebrafish; 1 nM
  Toxicity, number of zebrafish: 0
zebrafish; 10 nM
  Toxicity, number of zebrafish: 0
zebrafish; 100 nM
  Toxicity, number of zebrafish: 0
[3]
  lowest concentration inducing GFP signal in both heart valve and liver: 10 nM
zERβ2; 1 nM
  Liver GFP signal, number of zebrafish: 0
zERβ2; 10 nM
  Liver GFP signal, number of zebrafish: 10
zERβ2; 100 nM
  Liver GFP signal, number of zebrafish: 12
[4]
  EC50: 3 to 5 nM
ERβ [2]; E2 10 nM, vs DMSO
  increase of intensity of dsRED2 RNA signal at the array: ~3 fold
